From ChEMBL document CHEMBL3421546 (Bioorg Med Chem Lett, 2015)
Values after ≈ are worked out from the molar mass of the structure shown. One block for each compound: values may come before it.

Legend:
Plasmodium falciparum [1] = experiment: Antimalarial activity against CQ-sensitive Plasmodium falciparum 3D7 cultivated in human type O+ red blood cells assessed as reduction in parasite infection incubated for 48 hrs by microscopy; type: functional, organism-based; details: 3D7, 48 h
[2] = Cytotoxic activity against human HeLa cells assessed as cell viability at 100 ug/ml incubated for 24 hrs by MTT assay; type: cell-based; details: read-out: Activity
[3] = Cytotoxic activity against human HeLa cells assessed as reduction in cell viability incubated for 24 hrs by MTT assay; type: cell-based
[4] = Cytotoxic activity against human HeLa cells assessed as cell viability at 1000 ug/ml incubated for 24 hrs by MTT assay; type: cell-based; details: read-out: Activity
[5] = Cytotoxic activity against human HeLa cells assessed as cell viability at 0.1 ug/ml incubated for 24 hrs by MTT assay; type: cell-based; details: read-out: Activity
[6] = Cytotoxic activity against human HeLa cells assessed as cell viability at 1 ug/ml incubated for 24 hrs by MTT assay; type: cell-based; details: read-out: Activity
[7] = Selectivity index, ratio of CC50 for human HeLa cells to IC50 for CQ-sensitive Plasmodium falciparum 3D7; type: functional
[8] = Cytotoxic activity against human HeLa cells assessed as cell viability at 10 ug/ml incubated for 24 hrs by MTT assay; type: cell-based; details: read-out: Activity
[9] = Cytotoxic activity against human HepG2 cells assessed as cell viability at 0.1 ug/ml incubated for 24 hrs by MTT assay; type: cell-based; details: read-out: Activity
[10] = Selectivity index, ratio of CC50 for human HepG2 cells to IC50 for CQ-sensitive Plasmodium falciparum 3D7; type: functional
[11] = Cytotoxic activity against human HepG2 cells assessed as reduction in cell viability incubated for 24 hrs by MTT assay; type: cell-based
[12] = Cytotoxic activity against human HepG2 cells assessed as cell viability at 1 ug/ml incubated for 24 hrs by MTT assay; type: cell-based; details: read-out: Activity
[13] = Cytotoxic activity against human HepG2 cells assessed as cell viability at 100 ug/ml incubated for 24 hrs by MTT assay; type: cell-based; details: read-out: Activity
[14] = Cytotoxic activity against human HepG2 cells assessed as cell viability at 1000 ug/ml incubated for 24 hrs by MTT assay; type: cell-based; details: read-out: Activity
[15] = Cytotoxic activity against human HepG2 cells assessed as cell viability at 10 ug/ml incubated for 24 hrs by MTT assay; type: cell-based; details: read-out: Activity
Mus musculus [16] = experiment: Toxicity in Plasmodium berghei NK65 infected Swiss albino mouse assessed as mouse survival at 10 mg/kg, po dosed for four consecutive days beginning on first day of infection and measured on day 12 post infection relative to untreated control; type: organism-based; set-up: dose 10 mg/kg, route oral; details: in vivo
Plasmodium berghei [17] = experiment: Antimalarial activity against Plasmodium berghei NK65 infected in Swiss albino mouse assessed as parasitemia level at 10 mg/kg, po dosed for four consecutive days beginning on first day of infection and measured on day 7 post infection (reference value: 5.42 +/- 0.79%); type: functional
Plasmodium berghei [18] = experiment: Antimalarial activity against Plasmodium berghei NK65 infected in Swiss albino mouse assessed as inhibition of parasitemia at 10 mg/kg, po dosed for four consecutive days beginning on first day of infection and measured on day 12 post infection relative to untreated control; type: functional; details: NK65, 288 h
Plasmodium berghei [19] = experiment: Antimalarial activity against Plasmodium berghei NK65 infected in Swiss albino mouse assessed as parasitemia level at 10 mg/kg, po dosed for four consecutive days beginning on first day of infection and measured on day 12 post infection (reference value: 8.81 +/- 1.17%); type: functional
Plasmodium falciparum [20] = experiment: Antimalarial activity against CQ-resistant Plasmodium falciparum W2 cultivated in human type O+ red blood cells assessed as reduction in parasite infection incubated for 48 hrs by microscopy; type: functional, organism-based; details: W2, 48 h
Mus musculus [21] = experiment: Toxicity in Plasmodium berghei NK65 infected Swiss albino mouse assessed as mouse survival at 10 mg/kg, po dosed for four consecutive days beginning on first day of infection and measured on day 7 post infection relative to untreated control; type: organism-based; set-up: dose 10 mg/kg, route oral; details: in vivo
Mus musculus [22] = experiment: Toxicity in Plasmodium berghei NK65 infected Swiss albino mouse assessed as mouse mortality at 10 mg/kg, po dosed for four consecutive days beginning on first day of infection and measured on day 7 post infection relative to untreated control; type: organism-based; set-up: dose 10 mg/kg, route oral; details: in vivo
Mus musculus [23] = experiment: Toxicity in Plasmodium berghei NK65 infected Swiss albino mouse assessed as mouse mortality at 10 mg/kg, po dosed for four consecutive days beginning on first day of infection and measured on day 12 post infection relative to untreated control; type: organism-based; set-up: dose 10 mg/kg, route oral; details: in vivo
Plasmodium berghei [24] = experiment: Antimalarial activity against Plasmodium berghei NK65 infected in Swiss albino mouse assessed as inhibition of parasitemia at 10 mg/kg, po dosed for four consecutive days beginning on first day of infection and measured on day 7 post infection relative to untreated control; type: functional; details: NK65, 168 h

SMILES: NS(=O)(=O)c1ccc(Nc2ccnc3cc(Cl)ccc23)cc1
IC50 (Plasmodium falciparum [1]): 2.18 µg/mL (≈ 6.53 µM)
viability at 24 h, 100 ug/ml [2]: 91%
viability at 24 h, 0.1 ug/ml [9]: 93%
Ratio CC50/IC50 [10]: 112
CC50 at 24 h [11]: 234 µg/mL (≈ 701 µM)
CC50 at 24 h [3]: 793 µg/mL (≈ 2380 µM)
viability at 24 h, 1 ug/ml [12]: 94%
viability at 24 h, 100 ug/ml [13]: 65%
viability at 24 h, 1000 ug/ml [4]: 37%
viability at 24 h, 1000 ug/ml [14]: 43%
viability at 24 h, 0.1 ug/ml [5]: 93%
viability at 24 h, 1 ug/ml [6]: 95%
Ratio CC50/IC50 [7]: 364
viability at 24 h, 10 ug/ml [15]: 85%
viability at 24 h, 10 ug/ml [8]: 100%

SMILES: CCN(CC)CCCC(C)Nc1ccnc2cc(Cl)ccc12 (centres undefined) [CHLOROQUINE]
Activity (Mus musculus [16]): Non-toxic
IC50 (Plasmodium falciparum [1]): < 0.19 µg/mL
Activity (Plasmodium berghei [17]): 1.72%
viability at 24 h, 100 ug/ml [2]: 100%
viability at 24 h, 0.1 ug/ml [9]: 93%
inhibition in vivo at 10 mg/kg (Plasmodium berghei [18]): 82%
Activity (Plasmodium berghei [19]): 1.55%
Ratio CC50/IC50 [10]: >1000
CC50 at 24 h [11]: > 1000 µg/mL
CC50 at 24 h [3]: > 1000 µg/mL
viability at 24 h, 1 ug/ml [12]: 97%
viability at 24 h, 100 ug/ml [13]: 67%
IC50 (Plasmodium falciparum [20]): < 0.39 µg/mL
Activity (Mus musculus [21]): Non-toxic
viability at 24 h, 1000 ug/ml [4]: 92%
viability at 24 h, 1000 ug/ml [14]: 60%
Activity (Mus musculus [22]): Non-toxic
viability at 24 h, 0.1 ug/ml [5]: 98%
viability at 24 h, 1 ug/ml [6]: 94%
Activity (Mus musculus [23]): Non-toxic
inhibition in vivo at 10 mg/kg (Plasmodium berghei [24]): 68%
Ratio CC50/IC50 [7]: >1000
viability at 24 h, 10 ug/ml [15]: 92%
viability at 24 h, 10 ug/ml [8]: 97%

SMILES: C[C@H]1[C@H](OC(=O)CCC(=O)O)O[C@@H]2O[C@@]3(C)CC[C@H]4[C@H](C)CC[C@@H]1[C@@]24OO3 [ARTESUNATE]
IC50 (Plasmodium falciparum [20]): < 0.39 µg/mL

SMILES: NNC(=O)c1cccnc1 [NICOTINIC ACID HYDRAZIDE]
IC50 (Plasmodium falciparum [1]): > 50 µg/mL
viability at 24 h, 100 ug/ml [2]: 58%
CC50 at 24 h [3]: 153 µg/mL (≈ 1120 µM)
viability at 24 h, 1000 ug/ml [4]: 25%
viability at 24 h, 0.1 ug/ml [5]: 88%
viability at 24 h, 1 ug/ml [6]: 87%
Ratio CC50/IC50 [7]: <3.06
viability at 24 h, 10 ug/ml [8]: 92%

More lines, main results first:

IC50 (Plasmodium falciparum [1]): 23.8 µg/mL (≈ 57.5 µM)
SMILES: Cc1cc(NS(=O)(=O)c2ccc(Nc3ccnc4cc(Cl)ccc34)cc2)no1
viability at 24 h, 100 ug/ml [2]: 61%
CC50 at 24 h [3]: 290 µg/mL (≈ 699 µM)
viability at 24 h, 1000 ug/ml [4]: 17%
viability at 24 h, 0.1 ug/ml [5]: 67%
viability at 24 h, 1 ug/ml [6]: 72%
Ratio CC50/IC50 [7]: 12
viability at 24 h, 10 ug/ml [8]: 59%

IC50 (Plasmodium falciparum [1]): 16.3 µg/mL (≈ 39.6 µM)
SMILES: O=S(=O)(Nc1ncccn1)c1ccc(Nc2ccnc3cc(Cl)ccc23)cc1
viability at 24 h, 100 ug/ml [2]: 75%
viability at 24 h, 0.1 ug/ml [9]: 85%
Ratio CC50/IC50 [10]: >61
CC50 at 24 h [11]: > 1000 µg/mL
CC50 at 24 h [3]: 494 µg/mL (≈ 1200 µM)
viability at 24 h, 1 ug/ml [12]: 90%
viability at 24 h, 100 ug/ml [13]: 75%
viability at 24 h, 1000 ug/ml [4]: 22%
viability at 24 h, 1000 ug/ml [14]: 68%
viability at 24 h, 0.1 ug/ml [5]: 85%
viability at 24 h, 1 ug/ml [6]: 82%
Ratio CC50/IC50 [7]: 30
viability at 24 h, 10 ug/ml [15]: 89%
viability at 24 h, 10 ug/ml [8]: 76%

IC50 (Plasmodium falciparum [1]): 5.97 µg/mL (≈ 14.3 µM)
SMILES: O=S(=O)(Nc1nccs1)c1ccc(Nc2ccnc3cc(Cl)ccc23)cc1
viability at 24 h, 100 ug/ml [2]: 65%
CC50 at 24 h [3]: 334 µg/mL (≈ 801 µM)
viability at 24 h, 1000 ug/ml [4]: 12%
viability at 24 h, 0.1 ug/ml [5]: 74%
viability at 24 h, 1 ug/ml [6]: 71%
Ratio CC50/IC50 [7]: 56
viability at 24 h, 10 ug/ml [8]: 60%

IC50 (Plasmodium falciparum [1]): 3.64 µg/mL (≈ 8.86 µM)
SMILES: O=S(=O)(Nc1ccccn1)c1ccc(Nc2ccnc3cc(Cl)ccc23)cc1
viability at 24 h, 100 ug/ml [2]: 53%
viability at 24 h, 0.1 ug/ml [9]: 92%
Ratio CC50/IC50 [10]: 69
CC50 at 24 h [11]: 252 µg/mL (≈ 613 µM)
CC50 at 24 h [3]: 113 µg/mL (≈ 275 µM)
viability at 24 h, 1 ug/ml [12]: 97%
viability at 24 h, 100 ug/ml [13]: 57%
viability at 24 h, 1000 ug/ml [4]: 11%
viability at 24 h, 1000 ug/ml [14]: 48%
viability at 24 h, 0.1 ug/ml [5]: 82%
viability at 24 h, 1 ug/ml [6]: 78%
Ratio CC50/IC50 [7]: 31
viability at 24 h, 10 ug/ml [15]: 86%
viability at 24 h, 10 ug/ml [8]: 68%
